PMC7949057, “The cytoprotective protein MANF promotes neuronal survival independently from its role as a GRP78 cofactor” (The Journal of Biological Chemistry, 2021)
Residue numbers refer to the chain shown, from its start.

Key:
Type in all cases: binding
[1] = target: T1, MANF (Homo sapiens, UniProt P55145); assay: microscale thermophoresis
T1 construct: mature secreted protein (about 18 kDa, signal peptide cleaved), made in CHO-derived cells (QMCF, Icosagen), no tag told; amine-labelled with RED-NHS for MST
T1 sequence (P55145 25-182): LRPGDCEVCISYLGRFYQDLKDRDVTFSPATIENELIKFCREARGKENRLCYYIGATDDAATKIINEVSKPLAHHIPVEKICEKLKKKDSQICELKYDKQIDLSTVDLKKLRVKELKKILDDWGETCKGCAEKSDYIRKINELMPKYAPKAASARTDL
Description: microscale thermophoresis on MANF | MANF did interact with ADP, ATP, and AMP–PNP with Kd-s of […]

[2] = target: T2, GRP78 (Cricetulus griseus, UniProt G3I8R9); assay: fluorescent nucleotide release (ex […] nm, em […] nm); conditions: labelled compound; GRP78 1.25 μM, MABA-ADP 1.25 μM, chase ATP 125 μM, no MANF; 50 mM HEPES-KOH pH 7.4, 100 mM KCl, 10 mM MgCl2
T2 construct: gene HSPA5; full-length recombinant, N-terminal His-tag, labelled with RED-tris-NTA for MST
T2 sequence (G3I8R9 19-654): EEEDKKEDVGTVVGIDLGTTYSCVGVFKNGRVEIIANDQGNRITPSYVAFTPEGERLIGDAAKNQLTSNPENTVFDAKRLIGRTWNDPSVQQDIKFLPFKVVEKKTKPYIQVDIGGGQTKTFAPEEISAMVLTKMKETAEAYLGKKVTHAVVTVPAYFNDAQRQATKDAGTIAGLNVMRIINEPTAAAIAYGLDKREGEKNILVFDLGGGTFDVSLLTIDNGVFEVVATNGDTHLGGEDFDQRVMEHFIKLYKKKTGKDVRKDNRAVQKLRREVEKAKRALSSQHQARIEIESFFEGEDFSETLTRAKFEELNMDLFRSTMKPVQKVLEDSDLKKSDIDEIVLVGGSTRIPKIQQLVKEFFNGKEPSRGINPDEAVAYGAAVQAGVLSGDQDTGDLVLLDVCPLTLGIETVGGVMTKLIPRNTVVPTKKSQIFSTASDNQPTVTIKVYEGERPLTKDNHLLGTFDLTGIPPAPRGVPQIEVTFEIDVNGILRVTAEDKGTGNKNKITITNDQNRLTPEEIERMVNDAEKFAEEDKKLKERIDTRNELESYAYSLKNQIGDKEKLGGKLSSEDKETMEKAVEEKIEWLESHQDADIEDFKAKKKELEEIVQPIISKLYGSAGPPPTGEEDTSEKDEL

[3] = target: T3, MANF (Homo sapiens, UniProt P55145, V137G/K138A, form not given); assay: microscale thermophoresis; conditions: labelled MANF 50 nM; 10 mM Na-phosphate pH 7.4, 1 mM MgCl2, 3 mM KCl, 150 mM NaCl, 0.05% Tween-20; 25 °C; 1:1 fit
T3 construct: mature secreted protein (about 18 kDa, signal peptide cleaved), made in CHO-derived cells (QMCF, Icosagen), no tag told; amine-labelled with RED-NHS for MST
T3 sequence (P55145 25-182 V137G/K138A): T1 sequence (P55145 25-182) with V113G, K114A
Description: microscale thermophoresis on MANF | the mutant was able to bind ATP similarly to the wild-type MANF

[4] = target: T4, C-MANF (Homo sapiens, UniProt P55145); assay: […]-HSQC NMR chemical shift perturbation; conditions: 100 μM C-MANF, ATP:protein 0.5 to 10; 20 mM sodium phosphate pH 6.5, 50 mM NaCl; 25 °C; site at V134, K135
T4 sequence (P55145 120-182 limits assumed): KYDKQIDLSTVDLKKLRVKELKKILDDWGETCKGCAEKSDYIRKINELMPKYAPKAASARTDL

Nc1ncnc2c1ncn2[C@@H]1O[C@H](COP(=O)(O)OP(=O)(O)NP(=O)(O)O)[C@@H](O)[C@H]1O [AMP–PNP]
Kd [1]: 560 ± 170 µM

CNc1ccccc1C(=O)NCCCCNc1nc2c(N)ncnc2n1[C@@H]1O[C@H](COP(=O)(O)OP(=O)(O)O)[C@@H](O)[C@H]1O [MABA–ADP]
koff [2]: determine the mean koff rates of MABA–ADP release

Nc1ncnc2c1ncn2[C@@H]1O[C@H](COP(=O)(O)OP(=O)(O)OP(=O)(O)O)[C@@H](O)[C@H]1O [ATP]
Kd [3]: 339 ± 160 µM
Kd [1]: 830 ± 390 µM
15N-HSQC NMR chemical shift perturbation [4]: the ATP binding site is located at the C-terminal domain of MANF

Nc1ncnc2c1ncn2[C@@H]1O[C@H](COP(=O)(O)OP(=O)(O)O)[C@@H](O)[C@H]1O [ADP]
Kd [1]: 880 ± 280 µM
